In series [1] the test system is wheat seeds (winter wheat, TRZAW). The series can be described thus: Method A: safener seed treatment then post-emergence herbicide, visual crop damage in greenhouse pots. Type of series: in vivo. How it is done: (§1) For the safener seed treatment, sufficient seeds were weighed into screw top glass bottles approximately twice the volume of the seeds.
(§2) The safener (mefenpyr-diethyl, formulated as suspension concentrate (SC)) was weighed out so that the required rates (g a.i./kg seed) would be obtained, dissolved in water (1 ml water per 10 g of seeds), and added to the seeds to produce a slurry.
(§3) The bottles were capped and then placed in an overhead shaker (set at medium speed for up to 1 hour) so that the seeds were evenly coated with the slurry. The bottles were uncapped and the seeds were sown as described above.
(§4) For the seed treatment process, the blind formulation (the SC formulation without the safener mefenpyr-diethyl) was used as seed treatment as described above.

For series [2] the test system is unchanged. The series can be described thus: Method D: safener seed treatment then pre-emergence herbicide plus safener tank mix, visual crop damage. It counts as in vivo. How it is done:
as §1, §2, §3, §4

The test system is the same in series [3]. The series can be described thus: Method C: safener seed treatment then post-emergence herbicide plus safener tank mix, visual crop damage. Type of series: in vivo. How it is done: as §1, §2, §3, §4
Series [4] shares this test system. The series can be described thus: Prior-art method: post-emergence herbicide and tank-mix safener, visual crop damage in greenhouse pots. To be noted: herbicide 200 g/ha post-emergence (BBCH11); no safener; 14 days after application; mean of at least 3 replicates.
[5] abbreviates: safener seed treatment 0.5 g/kg only, no herbicide.
[6] abbreviates: herbicide 200 g/ha post-emergence (BBCH11), no safener, 14 days after application.

Molecules are shown by their SMILES.

For `CCOC(=O)C1=NN(c2ccc(Cl)cc2Cl)C(C)(C(=O)OCC)C1` (stereo not drawn) [Safener seed treatment, ethyl 1-(2,4-dichlorophenyl)-5-(ethoxycarbonyl)-5-methyl-2-pyrazoline-3-carboxylate], the “% crop damage” value stood at 0% in series [1] (setting [5]); 5% in series [2] (safener 200 g/ha in tank mix pre-emergence only, no herbicide, 14 days after application); 2% in series [2] (setting [5]); 5% in series [3] (safener 200 g/ha in tank mix post-emergence only, no herbicide, 14 days after application); 0% in series [3] (setting [5]).

As for `Cc1ccccc1CO[C@@H]1C[C@@]2(C(C)C)CC[C@]1(C)O2` (racemic) [Herbicide post-em., Cinmethylin], the “% crop damage” value in series [4] was found to be 28%; in series [1] (setting [6]), 28%; in series [2] (herbicide 50 g/ha pre-emergence, no safener, 14 days after application) it was 17%; in series [3] (setting [6]), 28%.

These data come from patent US20200404907A1, “METHOD OF REDUCING CROP DAMAGE” (BAYER AKTIENGESELLSCHAFT, priority 2018, published 2020).
